In ChEMBL document CHEMBL5143570, “Development of naringenin-O-carbamate derivatives as multi-target-directed liagnds for the treatment of Alzheimer's disease” (Bioorg Med Chem Lett, 2022):
The source made the active and inactive calls. The rule behind the calls is not given here.

How the values were obtained:
[1] = Antioxidant activity assessed as trolox equivalent of ORAC radical scavenging activity by ORAC-FL assay; type: functional
Acetylcholinesterase [2] = molecular target: T1, Acetylcholinesterase (Rattus norvegicus, UniProt P37136); assay: Inhibition of rat cortex AChE using acetylthiocholine as substrate incubated for 15 mins by DTNB reagent based Ellman's method; type: tissue-based
T1 sequence (P37136 whole entry): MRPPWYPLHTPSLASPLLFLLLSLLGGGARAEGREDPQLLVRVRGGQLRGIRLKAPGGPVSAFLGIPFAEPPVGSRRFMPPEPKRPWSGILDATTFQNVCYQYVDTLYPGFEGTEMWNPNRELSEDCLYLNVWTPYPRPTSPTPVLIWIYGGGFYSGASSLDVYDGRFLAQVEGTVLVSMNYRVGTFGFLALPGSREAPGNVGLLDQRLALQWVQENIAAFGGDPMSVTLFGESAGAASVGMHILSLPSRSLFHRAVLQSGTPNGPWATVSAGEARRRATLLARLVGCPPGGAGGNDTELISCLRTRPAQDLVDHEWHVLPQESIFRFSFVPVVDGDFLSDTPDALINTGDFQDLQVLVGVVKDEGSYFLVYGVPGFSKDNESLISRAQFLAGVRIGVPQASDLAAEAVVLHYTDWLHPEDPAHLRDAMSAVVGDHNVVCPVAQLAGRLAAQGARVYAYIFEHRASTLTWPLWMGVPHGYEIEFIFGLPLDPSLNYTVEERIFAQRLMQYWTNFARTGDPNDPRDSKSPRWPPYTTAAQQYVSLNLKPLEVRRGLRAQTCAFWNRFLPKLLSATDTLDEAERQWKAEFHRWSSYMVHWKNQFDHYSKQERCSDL

Butyrylcholinesterase = Butyrylcholinesterase (Rattus norvegicus, UniProt Q9JKC1); assay: Inhibition of rat serum Butyrylcholine esterase using butyrylthiocholine as substrate incubated for 15 mins by DTNB reagent based Ellman's method; type: cell-free
Rattus norvegicus = species: Rattus norvegicus; assay: Selectivity index, ratio of IC50 for inhibition of rat serum butyrylcholine esterase to IC50 for inhibition of rat cortex AChE
Acetylcholinesterase [3] = molecular target: T2, Acetylcholinesterase (Homo sapiens, UniProt P22303); assay: Inhibition of human erythrocyte AChE using acetylthiocholine as substrate incubated for 15 mins by DTNB reagent based Ellman's method; type: cell-based
Cholinesterase = Cholinesterase (Homo sapiens, UniProt P06276); assay: Inhibition of human serum BuChE using butyrylthiocholine as substrate incubated for 15 mins by DTNB reagent based Ellman's method; type: cell-free
Homo sapiens = species: Homo sapiens; assay: Selectivity index, ratio of IC50 for inhibition of human serum BuChE to IC50 for inhibition of human erythrocyte AChE
PC-12 [4] = assay: Neuroprotective activity against H2O2-induced cytotoxicity in rat PC-12 cells assessed as increase in cell viability at 100 uM by MTT assay relative to control; type: functional, cell-based
[5] = molecular target: Amyloid-beta precursor protein (Homo sapiens) (UniProt P05067); assay: Inhibition of amyloid beta (1 to 42 ) (unknown origin) self-induced aggregation at 25 uM by thioflavin-T fluorescence method relative to control
Acetylcholinesterase [6] = molecular target: T2, Acetylcholinesterase; assay: Pseudo-irreversible inhibition of human AChE assessed as restoration of enzyme activity at 0.1 time of IC50 concentration incubated for 120 mins by dilution method relative to control; design: scale not given: the % may be the effect or the level left
[7] = molecular target: Amyloid-beta precursor protein (Homo sapiens) (UniProt P05067); assay: Inhibition of amyloid beta (1 to 42) (unknown origin) self-induced fibril formation at 25 uM incubated for 24 hrs by transmission electron microscopic analysis
[8] = Cytotoxicity against mouse HT-22 cells assessed as reduction in cell viability by MTT assay; type: toxicity, cell-based
[9] = Effect on tau protein expression in pRK5-GFP-Tau plasmid transfected mouse HT-22 cells assessed as reduction in fluorescence intensity at 5 uM incubated for 24 hrs by fluorescence microscopic analysis (reference value: 36.8); type: functional
[10] = Effect on tau protein expression in pRK5-GFP-Tau plasmid transfected mouse HT-22 cells assessed as reduction in fluorescence intensity at 10 uM incubated for 24 hrs by fluorescence microscopic analysis (reference value: 36.8); type: functional
[11] = Effect on tau protein expression in pRK5-GFP-Tau plasmid transfected mouse HT-22 cells assessed as reduction in fluorescence intensity at 20 uM incubated for 24 hrs by fluorescence microscopic analysis (reference value: 36.8); type: functional
HT-22 [12] = assay: Effect on tau protein expression in pRK5-GFP-Tau plasmid transfected mouse HT-22 cells assessed as fluorescence intensity by measuring decrease in GFP level at 5 to 20 uM incubated for 24 hrs by western blot analysis; type: functional, cell-based; conditions: dose 5-20 µM
[13] = Effect on tau protein expression in pRK5-GFP-Tau P301L plasmid transfected mouse HT-22 cells assessed as reduction in fluorescence intensity at 5 uM by fluorescence microscopic analysis (reference value: 35.0); type: functional
[14] = Effect on tau protein expression in pRK5-GFP-Tau P301L plasmid transfected mouse HT-22 cells assessed as reduction in fluorescence intensity at 10 uM by fluorescence microscopic analysis (reference value: 35.0); type: functional
[15] = Effect on tau protein expression in pRK5-GFP-Tau P301L plasmid transfected mouse HT-22 cells assessed as reduction in fluorescence intensity at 20 uM by fluorescence microscopic analysis (reference value: 35.0); type: functional
[16] = Effect on APP protein expression in pEGFP-N1-APP plasmid transfected mouse HT-22 cells assessed as decrease in fluorescence intensity at 5 uM incubated for 24 hrs by fluorescence microscopic analysis (reference value: 30.7); type: functional
[17] = Effect on APP protein expression in pEGFP-N1-APP plasmid transfected mouse HT-22 cells assessed as decrease in fluorescence intensity at 10 uM incubated for 24 hrs by fluorescence microscopic analysis (reference value: 30.7); type: functional
[18] = Effect on APP protein expression in pEGFP-N1-APP plasmid transfected mouse HT-22 cells assessed as decrease in fluorescence intensity at 20 uM incubated for 24 hrs by fluorescence microscopic analysis (reference value: 30.7); type: functional
HT-22 [19] = assay: Effect on APP protein expression in pEGFP-N1-APP plasmid transfected mouse HT-22 cells assessed as fluorescence intensity by measuring decrease in GFP level incubated for 24 hrs by western blot analysis; type: functional, cell-based; conditions: dose 5-20 µM, DDE = dose-dependent effect
PC-12 [20] = assay: Cytotoxicity against rat PC-12 cells assessed as reduction in cell viability measured upto 40 uM incubated for 72 hrs by MTT assay; type: toxicity, cell-based; conditions: pc-12, 72 h
PC-12 [21] = assay: Neuroprotective activity against H2O2-induced cytotoxicity in rat PC-12 cells assessed as increase in cell viability at 5 uM by MTT assay relative to control; type: functional
PC-12 [22] = assay: Neuroprotective activity against H2O2-induced cytotoxicity in rat PC-12 cells assessed as increase in cell viability at 10 uM by MTT assay relative to control; type: functional

Sequence of Cholinesterase (P06276 whole entry): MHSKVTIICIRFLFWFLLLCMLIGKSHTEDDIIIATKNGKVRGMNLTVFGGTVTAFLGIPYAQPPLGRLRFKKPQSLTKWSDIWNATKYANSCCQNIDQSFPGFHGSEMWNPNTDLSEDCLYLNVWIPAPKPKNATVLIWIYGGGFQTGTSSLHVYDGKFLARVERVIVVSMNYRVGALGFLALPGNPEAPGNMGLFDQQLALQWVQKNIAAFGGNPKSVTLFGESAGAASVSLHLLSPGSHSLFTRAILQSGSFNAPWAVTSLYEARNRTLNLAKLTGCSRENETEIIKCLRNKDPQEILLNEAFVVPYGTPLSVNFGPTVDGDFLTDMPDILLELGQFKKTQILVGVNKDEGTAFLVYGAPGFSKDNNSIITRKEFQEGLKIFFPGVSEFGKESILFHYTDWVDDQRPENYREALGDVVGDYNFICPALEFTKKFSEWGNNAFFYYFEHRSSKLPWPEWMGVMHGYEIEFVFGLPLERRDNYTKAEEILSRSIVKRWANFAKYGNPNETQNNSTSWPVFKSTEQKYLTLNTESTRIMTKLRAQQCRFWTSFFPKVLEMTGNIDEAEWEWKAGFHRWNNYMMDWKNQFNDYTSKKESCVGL
Sequence of Butyrylcholinesterase (Q9JKC1 whole entry): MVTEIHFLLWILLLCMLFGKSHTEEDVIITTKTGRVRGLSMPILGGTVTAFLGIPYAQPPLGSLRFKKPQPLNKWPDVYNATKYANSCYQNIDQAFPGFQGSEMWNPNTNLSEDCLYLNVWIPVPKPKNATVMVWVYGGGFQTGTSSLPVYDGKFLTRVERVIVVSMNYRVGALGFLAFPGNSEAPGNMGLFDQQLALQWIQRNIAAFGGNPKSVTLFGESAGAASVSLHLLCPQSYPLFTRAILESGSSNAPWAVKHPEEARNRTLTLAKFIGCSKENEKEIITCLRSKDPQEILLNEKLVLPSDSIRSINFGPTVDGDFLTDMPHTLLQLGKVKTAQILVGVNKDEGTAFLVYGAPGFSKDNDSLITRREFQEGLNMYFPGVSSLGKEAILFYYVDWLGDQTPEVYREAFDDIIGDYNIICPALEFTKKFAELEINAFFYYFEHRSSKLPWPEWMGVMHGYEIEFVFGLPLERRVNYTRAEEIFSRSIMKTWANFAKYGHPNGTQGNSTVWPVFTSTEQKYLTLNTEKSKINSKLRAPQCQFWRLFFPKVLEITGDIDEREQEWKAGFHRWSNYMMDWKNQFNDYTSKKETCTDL
T2 sequence (P22303 whole entry): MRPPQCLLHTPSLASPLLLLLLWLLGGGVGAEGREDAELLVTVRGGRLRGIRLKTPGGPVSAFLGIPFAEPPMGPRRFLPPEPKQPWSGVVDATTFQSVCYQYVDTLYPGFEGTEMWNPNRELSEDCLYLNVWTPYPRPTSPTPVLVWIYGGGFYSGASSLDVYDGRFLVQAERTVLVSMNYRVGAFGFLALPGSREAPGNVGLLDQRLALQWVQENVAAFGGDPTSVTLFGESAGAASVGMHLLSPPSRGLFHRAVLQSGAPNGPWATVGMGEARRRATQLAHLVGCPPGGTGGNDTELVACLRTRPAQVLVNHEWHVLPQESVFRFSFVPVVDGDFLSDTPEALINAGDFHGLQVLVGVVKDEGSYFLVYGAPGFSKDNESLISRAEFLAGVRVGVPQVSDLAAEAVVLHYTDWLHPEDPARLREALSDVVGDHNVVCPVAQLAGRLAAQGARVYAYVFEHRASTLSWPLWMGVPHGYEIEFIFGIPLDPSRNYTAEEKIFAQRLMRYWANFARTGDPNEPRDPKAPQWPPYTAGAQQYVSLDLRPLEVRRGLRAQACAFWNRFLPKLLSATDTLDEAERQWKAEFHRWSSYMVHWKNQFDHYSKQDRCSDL
Sequence of Amyloid-beta precursor protein (Homo sapiens) (P05067 whole entry): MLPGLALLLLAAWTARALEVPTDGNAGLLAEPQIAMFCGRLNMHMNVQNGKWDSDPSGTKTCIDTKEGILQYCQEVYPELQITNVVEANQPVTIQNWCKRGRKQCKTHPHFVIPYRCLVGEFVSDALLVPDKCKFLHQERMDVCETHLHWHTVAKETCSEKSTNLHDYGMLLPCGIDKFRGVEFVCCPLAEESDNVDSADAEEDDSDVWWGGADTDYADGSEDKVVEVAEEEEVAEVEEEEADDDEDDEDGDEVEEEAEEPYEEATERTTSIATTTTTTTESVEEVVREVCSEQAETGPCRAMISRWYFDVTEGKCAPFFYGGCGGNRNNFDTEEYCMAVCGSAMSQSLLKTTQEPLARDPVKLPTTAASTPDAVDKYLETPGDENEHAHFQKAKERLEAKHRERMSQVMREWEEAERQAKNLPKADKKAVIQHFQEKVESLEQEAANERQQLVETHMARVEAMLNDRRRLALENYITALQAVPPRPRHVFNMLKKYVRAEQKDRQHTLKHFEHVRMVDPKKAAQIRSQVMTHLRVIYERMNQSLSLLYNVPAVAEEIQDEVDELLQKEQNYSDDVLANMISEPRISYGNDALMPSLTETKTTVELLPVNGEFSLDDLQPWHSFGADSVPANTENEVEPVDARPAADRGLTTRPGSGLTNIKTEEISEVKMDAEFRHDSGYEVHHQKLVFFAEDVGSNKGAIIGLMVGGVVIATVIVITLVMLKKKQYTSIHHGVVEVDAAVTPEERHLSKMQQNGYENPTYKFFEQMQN

Molecule	Activity [1]	IC50 (Acetylcholinesterase [2])	IC50 (Butyrylcholinesterase)	Ratio IC50 (Rattus norvegicus)	further results
CCN(C)C(=O)Oc1ccc(-c2coc3cc(OC(=O)N(C)CC)cc(OC(=O)N(C)CC)c3c2=O)cc1	0.3	8.7 µM	16.9 µM	1.9	
CCN(C)C(=O)Oc1cc(O)c2c(c1)OC(c1ccc(O)cc1)CC2=O (stereo not given)	2.7	11.6 µM	28.2 µM	2.4	
CN(C)C(=O)Oc1ccc(C2CC(=O)c3c(O)cc(OC(=O)N(C)C)cc3O2)cc1 (stereo not given)	0.9	14.2 µM	26.5 µM		
CCN(C)C(=O)Oc1ccc(-c2cc(=O)c3c(O)cc(OC(=O)N(C)CC)cc3o2)cc1	1.3	5.7 µM	15.6 µM	2.7	IC50 (Acetylcholinesterase [3]): 7.9 µM; IC50 (Cholinesterase): 18.7 µM; Ratio IC50 (Homo sapiens): 2.4
VITAMIN E					Activity (PC-12 [4]): 67.3%
O=C1CC(c2ccc(OC(=O)N3CCCC3)cc2)Oc2cc(OC(=O)N3CCCC3)cc(O)c21 (stereo not given)	1.1	14.5 µM	19.8 µM	1.4	
CON(C)C(=O)Oc1ccc(-c2cc(=O)c3c(O)cc(OC(=O)N(C)OC)cc3o2)cc1	1.1	9.3 µM	19.7 µM	2.1	
O=C1CC(c2ccc(OC(=O)N(c3ccccc3)c3ccccc3)cc2)Oc2cc(OC(=O)N(c3ccccc3)c3ccccc3)cc(O)c21 (stereo not given)	1.1	18.2 µM	25.2 µM	1.4	
O=c1c(-c2ccc(O)cc2)coc2cc(O)cc(O)c12 [GENISTEIN]	6.2	> 50 µM	> 50 µM		
CCN(C)C(=O)Oc1ccc(-c2coc3cc(OC(=O)N(C)CC)cc(O)c3c2=O)cc1	1.2	11.2 µM	29.3 µM	2.6	
O=c1cc(-c2ccc(O)cc2)oc2cc(O)cc(O)c12 [APIGENIN]	5.5	> 50 µM	> 50 µM		
CCN(C)C(=O)Oc1ccc(C2CC(=O)c3c(OC(=O)N(C)CC)cc(OC(=O)N(C)CC)cc3O2)cc1 (stereo not given)	0.2	6.7 µM	20.2 µM		IC50 (Acetylcholinesterase [3]): 10.6 µM; IC50 (Cholinesterase): 24.5 µM; inhibition [5]: 42.1%; Activity (Acetylcholinesterase [6]): 75.9%; inhibition [7]: Active; IC50 [8]: 215 µM; Flu intensity [9]: 23.7; Flu intensity [10]: 20.7; Flu intensity [11]: 6.48; Activity (HT-22 [12]): Active; Flu intensity [13]: 18.7; Flu intensity [14]: 17.6; Flu intensity [15]: 16; Flu intensity [16]: 22.3; Flu intensity [17]: 22.1; Flu intensity [18]: 20.7; Activity (HT-22 [19]): Dde; Activity (PC-12 [20]): Non-Toxic; Activity (PC-12 [21]): 59.3%; Activity (PC-12 [22]): 64.1%
O=C1CC(c2ccc(O)cc2)Oc2cc(O)cc(O)c21 (stereo not given)	5.1	> 50 µM	> 50 µM		
CCN(CC)C(=O)Oc1cc(O)c2c(c1)OC(c1ccc(O)cc1)CC2=O (stereo not given)	2.5	15.1 µM	26.7 µM	1.8	
CON(C)C(=O)Oc1ccc(-c2coc3cc(OC(=O)N(C)OC)cc(O)c3c2=O)cc1	1	13.5 µM	27.1 µM	2	
O=C1CC(c2ccc(OC(=O)N3CCOCC3)cc2)Oc2cc(OC(=O)N3CCOCC3)cc(O)c21 (stereo not given)	1	11.3 µM	23.6 µM	2.1	
CCN(C)C(=O)Oc1ccc(-c2cc(=O)c3c(OC(=O)N(C)CC)cc(OC(=O)N(C)CC)cc3o2)cc1	0.2	6.9 µM	14.3 µM	2.1	IC50 (Acetylcholinesterase [3]): 12.3 µM; IC50 (Cholinesterase): 20.6 µM; Ratio IC50 (Homo sapiens): 1.7
CCN(CC)C(=O)Oc1ccc(C2CC(=O)c3c(O)cc(OC(=O)N(CC)CC)cc3O2)cc1 (stereo not given)	1.1	10.7 µM	22.4 µM	2.1	
CON(C)C(=O)Oc1ccc(C2CC(=O)c3c(O)cc(OC(=O)N(C)OC)cc3O2)cc1 (stereo not given)	1.2	9.9 µM	18.1 µM	1.8	
CCN(C)C(=O)Oc1cccc([C@H](C)N(C)C)c1					Activity (Acetylcholinesterase [6]): 76.3%
